These results are taken from patent US8148392B2, “2-indolyl imidazo [4,5-d] phenanthroline derivatives and their use in the treatment of cancer” (Lorus Therapeutics Inc., priority 2005, dated 2012).

Usually GI50 stands for the concentration at which growth is held to half of that of the control. Low values mean greater sensitivity of the cells, high ones lower sensitivity of the cells.

The subject of assay [1] is fourth leukemia cell line (a myeloma cell line). Put plainly: NCI DTP in vitro screen, fourth leukemia cell line. Format: cell-based. The settings on record: Homo sapiens. The method, then:
For example, the following methodology, which is currently employed by the NCI, can be used to assess the GI50 of a candidate compound of Formula I in the selected cancer cell lines. Briefly, cell suspensions are diluted (5000-40,000 cells per well) and 100 μL of the diluted cell suspension is added into 96-well microtiter plates. Inoculates are allowed a preincubation period of 24 h at 37° C. for stabilization. Dilutions at twice the intended test concentration of the candidate compound are added at time zero in 100 μL aliquots to the microtiter plate wells. Test compounds are generally evaluated at five 10-fold dilutions. In routine testing, the highest well concentration is usually 10E-4 M, but this may be adjusted depending on the compound being tested. […] The cells are then assayed by using the sulforhodamine B assay (see, for example, Skehan, P., et al. (1990) JNCI, J. Natl. Cancer Inst. 82, 1107-1112; and Chen, S. F., et al. (1990) Proc. Am. Assoc. Cancer Res. 31, A2644) employing a plate reader which can be used to read the optical densities.
Compounds 2 and 3 were evaluated for their antiproliferative effects in a panel of 60 human cancer cell lines as part of the in vitro anticancer screening services provided by the DTP (Developmental Therapeutics Program) of the US National Cancer Institute (NCI).

Assay [2] deals with KLF4. The assay is described as follows: KLF4 mRNA in HT-29 tumour xenografts, RT-PCR. Format: in vivo, CD-1 female nude mice. The method, then: The ability of compound 3 to modulate expression of KLF4 in HT-29 colon tumour xenograft was determined as follows. Groups of 10 CD-1 female nude mice (6-7 weeks) were injected in the lower mid back with human colon adenocarcinoma cells HT-29 cells (3×10^6 cells in 0.1 ml PBS) subcutaneously. […] After the treatment period, the animals were sacrificed, the tumours excised, and total RNA was extracted from 30 mg of tumour tissue using Rneasy Mini kit (QIAGEN, Valencia, Calif.). The expression of KLF4 mRNA was analyzed by real-time polymerase chain reaction using the comparative CT method as described in Example 19. […]
To examine the effect of compound 3-mediated changes in KLF4 and Cyclin D1 expressions in vivo, the expressions of respective genes in xenograft tissues of vehicle control (Lutrol) and compound 3-treated HT-29 colon cancer cell-transplanted mice were analyzed by RT-PCR (FIG. 46). Briefly, KLF4 and Cyclin D1 gene expression in HT-29 xenograft tissues after 14 days treatment with compound 3 was measured as follows. […] Total RNA was extracted and gene expression level was determined by RT-PCR. […]
The tumor regression efficacy of compound 3 was assessed in compound 3-treated HT-29-transplanted athymic mice (FIG. 54A), and correlated with gene expressions of MTF-1, KLF4 and Cyclin D1 in HT-29 xenograft tissues (FIG. 54B). […]

“Also recorded” adds a separate entry of the source.

`Cc1[nH]c2ccccc2c1-c1nc2c3cccnc3c3ncccc3c2[nH]1` [Compound 3] yielded a GI50 in assay [1] of 2.88 µM. Further, the “induction of KLF4 in tumour xenografts” value in assay [2] (50 mg/kg/d, 35 days, versus vehicle) is on record as “approximately 1.5 fold”. Further, the “KLF4 gene expression in xenograft tissue, change” value in assay [2] (100 mg/kg i.p., 14 days or 2 cycles of 5 days) is reported as “increase in KLF4 gene; also recorded: significant increase in KLF4”.
